Conditions: basic group

Point of comparison: `CC(CO)CN(C)C` (configuration not stated), pKa 9.75. Against it:
- NC(Cc1cccnc1)C(=O)[O-] (configuration not stated) — lower, 9.26
- CN(C)Cc1cc([N+](=O)[O-])ccc1[O-] — within 0.2 log units, 9.93
- Cn1ccc(=O)cc1 — lower, 3.33
- Cc1ccc(N(CC2CO2)CC2CO2)cc1 (configuration not stated) — lower, -0.48
- CCN(CC)/N=C(\N)CC[Si](C)(C)C — higher, 10.7
- O=C([O-])Cc1nc2ccccc2[nH]1 — lower, 4.1
- COCCNc1ccccc1 — lower, 4.05
- O=C([O-])C1CCCCN1 (configuration not stated) — higher, 10.6
- Cn1c(=O)cnc2ccccc21 — lower, -1.15
- NC[C@H](O)C(=O)[O-] — lower, 9.27
- O=CN1CCNCC1 — lower, 7.98
- COc1ccncc1 — lower, 6.65
- Cc1ccccc1/C(N)=N/O — lower, 4.03
- c1nc[nH]n1 — lower, 2.5
- Nc1ccc(C[NH3+])cc1 — lower, 4.16
- CNC(=N)CCNS(=O)(=O)c1ccc(C)cc1 — higher, 10
- CCOC(=O)C[C@H](N)c1ccccc1 — lower, 8.32
- c1nc(Cc2c[nH]c(Cc3nc(Cc4c[nH+]c[nH]4)c[nH]3)[nH+]2)c[nH]1 — lower, 5.43
- Cc1cccc(N)c1C — lower, 4.56
- COc1ccc(-c2cnc(-c3ccc(OC)cc3)o2)cc1 — lower, 1.41
- CSc1ccc2ncccc2c1 — lower, 4.75
- CC(C)(C)[C@]1(O)CCN2C[C@@H](c3ccccc3)c3ccccc3[C@@H]2C1 — lower, 7.03
- CCCN(CCC)CCC — higher, 10.5
- c1ccc(Nc2ccccc2)cc1 — lower, 0.76
- Nc1nc2c(o1)CCCC2 — lower, 5.75
- C=CC1CN2CCC1C[C@H]2C(=O)[O-] (some centres not stated) — higher, 10.6
- Nc1ccccc1[NH3+] — lower, 1.3
- C1N2CN3CN1C[NH+](C2)C3 — lower, -1.7
- O=[N+]([O-])c1ccc2[nH]ncc2c1 — lower, 0.13
- c1ccc(-c2ccc3ncc(C[NH+]4CCOCC4)n3n2)cc1 — lower, 2.91
- CCOc1ccc2nc(/C=C/c3ccccc3)cc(N)c2c1 — lower, 9.5
- C=C1[C@@H]2CC3C4N5C[C@]6(C)C[C@@H](OC(C)=O)[C@H](OC(C)=O)[C@]47C6[C@@H]5C[C@]3([C@H]1OC(C)=O)[C@@]7(O)C2 — lower, 8.35
- O[C@@H]1[C@H](O)[C@@H](n2cnc3cncnc32)OC[C@@H]1O — lower, 1.8
- C[C@@H]1[C@@H]2Cc3ccc(O)cc3[C@@]1(C)CCN2CCF — lower, 8.35
- CN(C)CCCCCCNC(=O)/C=N/[O-] — higher, 10.4
- CC(O)CN(CCCN1CCOCC1)CC(C)O (configuration not stated) — lower, 8.4
- Cc1cccc(C)c1NC(=O)CN(C)C — lower, 7.36
- c1coc(C2CN3CCC2CC3)c1 (configuration not stated) — higher, 10
- CNCCCNC(=O)/C=N/[O-] — higher, 10.6
- CCCNC(C)C(=O)[O-] (configuration not stated) — higher, 10.2
- Cc1nnc2c(c1C)CCC2 — lower, 5.36
- CN1CCC(NN)CC1 — lower, 8.85
- CC(=O)n1cnc2ccccc21 — lower, 1.8
- N/C(CC(N)c1ccccc1)=N\O (configuration not stated) — lower, 8
- CNC(=O)c1ccccn1 — lower, 2.4
- CNc1ccc[n+](O)c1 — lower, -2.42
- Cc1ccnc(-c2cc(C)ccn2)c1 — lower, 5.32
- CCN(CC)CCNc1ccnc2ccccc12 — lower, 8.95
- CCCn1nnnc1N — lower, 1.8
- Oc1ccc2nnccc2c1 — lower, 3.65
- CSc1ccc2ccccc2n1 — lower, 3.71
- Nc1ccncc1 — lower, 9.16
- COc1c(N)cccc1C(=O)N[C@@H]1C[C@H]2CC[C@@H](C1)N2Cc1ccccc1 — lower, 8.86
- CCOc1cccc(/N=C/N(C)C)c1 — lower, 8.87
- [O-]c1ccc([O-])nn1 — higher, 13
- NCc1cc(N)cc(Cl)c1 — lower, 9.54
- CP(=O)(Cc1ccccc1)c1ccccc1 (configuration not stated) — lower, -1.82
- Oc1cccc(C2NCCS2)c1 (configuration not stated) — lower, 5.2
- CCOC(=O)C1CN2CCC1CC2 (configuration not stated) — within 0.2 log units, 9.64
- Cc1[nH]nc(O)c1C(C)C — lower, 3
- CC(C)(N)CN — higher, 10
- N=C(Nc1ccccc1)Nc1nc(N)nc(N)n1 — lower, 8.2
- Cc1cnc(N(C)C)s1 — lower, 6.08
- OCC1CC2CCN1CC2 (configuration not stated) — higher, 10.8
- COc1ccc(C[C@H](C)N)cc1OC — within 0.2 log units, 9.6
- OC1(c2cc3ccccc3o2)CN2CCC1CC2 (configuration not stated) — lower, 8.84
- CC(O)CN(CCN1CCOCC1)CC(C)O (configuration not stated) — lower, 7.9
- CNc1c2ccccc2nc2cccc([N+](=O)[O-])c12 — lower, 7.2
- CCN(CC)Cc1cc([N+](=O)[O-])ccc1[O-] — higher, 11
- COC(=O)CN — lower, 7.64
- Sc1cnc2ccccc2c1 — lower, 2.33
- Cn1ccnc1-c1nccn1C — lower, 4.91
- C1CN(CC2CO2)CCO1 (configuration not stated) — lower, 5.88
- NC(=O)C(N)Cc1c[nH]cn1 (configuration not stated) — lower, 7.64
- CSc1cnc2ccccc2n1 — lower, 0.26
- O=Cc1ccncc1 — lower, 4.63
- Cc1nc2cccc([N+](=O)[O-])c2c(NCCC[NH+](C)C)c1C — lower, 6.64
- CCN(CC)C(C)O (configuration not stated) — higher, 10.2
- O=C(O)c1ccoc1 — lower, -0.59
- Cc1cccc(C)c1NC(=O)CN1CCCCC1 — lower, 7.6
- NC(=O)CCCCc1ccncc1 — lower, 5.92
- [S-]c1ccccn1 — within 0.2 log units, 9.89
- CN(C)CCC(c1ccccc1)c1ccccn1 (configuration not stated) — lower, 9.29
- CCCCCCN(CC(O)CC)CC(O)CC (configuration not stated) — lower, 8.6
- c1coc(CNc2ncnc3[nH]ncc23)c1 — lower, 4.01
- c1ccc(NC2CCCC2)cc1 — lower, 5.3

Source: the pKa sets of Baltruschat and Czodrowski (2020)
